Reference: patent US20060069132A1, “Azolecarboxamide herbicides” (priority 2004, published 2006)

Legend:
barnyardgrass [1] = assay: Test B pre-/postemergence herbicide test; type: in vivo, Echinochloa crus-galli; conditions: Postemergence, scale 0 (no effect) to 100 (complete control)
Text: (§1) Seeds selected from barnyardgrass (Echinochloa crus-galli (L.) Beauv.), Surinam grass (Urochloa decumbens (Staph) R. D. Webster, previously named Brachiaria decumbens Stapf), cocklebur (Xanthium strumarium L.), corn (Zea mays L.), large crabgrass (Digitaria sanguinalis (L.) Scop.), giant foxtail (Setaria faberi Herim.), lambsquarters (Chenopodium album L.), morningglory (Ipomoea coccinea L.), pigweed (Amaranthus retroflexus L.), rice (Oryza sativa L.) and velvetleaf (Abutilon theophrasti Medik.) were planted and treated preemergence with test chemicals formulated in a non-phytotoxic solvent mixture which included a surfactant.
(§2) At the same time, plants selected from these crop and weed species and also blackgrass (Alopecurus myosuroides Huds.), wheat (Triticum aestivum L.) and wild oat (Avena fatua L.) were treated with postemergence applications of test chemicals formulated in the same manner. Plants ranged in height from 2 to 18 cm (1- to 4-leaf stage) for postemergence treatments. Plant species in the flooded paddy test consisted of rice (Oryza sativa L.), small flower umbrella sedge (Cyperus difformis L.), ducksalad (Heteranthera limosa (Sw.) Willd.) and barnyardgrass (Echinochloa crus-galli (L.) Beauv.) grown to the 2-leaf stage for testing. Treated plants and controls were maintained in a greenhouse for 13 to 15 days, after which time all species were compared to controls and visually evaluated. Plant response ratings, summarized in Table B, are based on a scale of 0 to 100 where 0 is no effect and 100 is complete control. A dash (-) response means no test result.

Surinam grass = assay: Test B pre-/postemergence herbicide test; type: in vivo, Urochloa decumbens
Text: as §1, §2

cocklebur = assay: Test B pre-/postemergence herbicide test; type: in vivo, Xanthium strumarium
Text: as §1, §2

corn = assay: Test B pre-/postemergence herbicide test; type: in vivo, Zea mays
Text: as §1, §2

large crabgrass [2] = assay: Test B pre-/postemergence herbicide test; type: in vivo, Digitaria sanguinalis
Text: as §1, §2

giant foxtail [3] = assay: Test B pre-/postemergence herbicide test; type: in vivo, Setaria faberi
Text: as §1, §2

lambsquarters = assay: Test B pre-/postemergence herbicide test; type: in vivo, Chenopodium album
Text: as §1, §2

morningglory [4] = assay: Test B pre-/postemergence herbicide test; type: in vivo, Ipomoea coccinea
Text: as §1, §2

pigweed = assay: Test B pre-/postemergence herbicide test; type: in vivo, Amaranthus retroflexus
Text: as §1, §2

velvetleaf [5] = assay: Test B pre-/postemergence herbicide test; type: in vivo, Abutilon theophrasti
Text: as §1, §2

blackgrass = assay: Test B postemergence herbicide test; type: in vivo, Alopecurus myosuroides
Procedure: as §2

wheat = assay: Test B postemergence herbicide test; type: in vivo, Triticum aestivum; parameters: key to Wheat plant response rating: 0 = no effect, 100 = complete control
Procedure: as §2

wild oat = assay: Test B postemergence herbicide test; type: in vivo, Avena fatua
Procedure: as §2

rice = assay: Test B flooded paddy test; type: in vivo, Oryza sativa; conditions: 125 g ai/ha, scale 0 to 100 (0 no effect, 100 complete control)
Procedure: as §2

[6] = tested on: small flower umbrella sedge; assay: Test B flooded paddy test; type: in vivo, Cyperus difformis; conditions: 125 g ai/ha, scale 0 to 100 (0 no effect, 100 complete control)
Procedure: as §2

ducksalad = assay: Test B flooded paddy test; type: in vivo, Heteranthera limosa; conditions: 125 g ai/ha, scale 0 to 100 (0 no effect, 100 complete control)
Procedure: as §2

barnyardgrass [7] = assay: Test B flooded paddy test; type: in vivo, Echinochloa crus-galli; conditions: 125 g ai/ha, scale 0 to 100 (0 no effect, 100 complete control)
Procedure: as §2

barnyardgrass [8] = assay: Test A pre-/postemergence herbicide test; type: in vivo, Echinochloa crus-galli
Text: (§3) Seeds of plant species selected from barnyardgrass (Echinochloa crus-galli (L.) Beauv.), downy bromegrass (Bromus tectorum L.), large crabgrass (Digitaria sanguinalis (L.) Scop.), giant foxtail (Setaria faberi Herrm.), morningglory (Ipomoea spp.), redroot pigweed (Amaranthus retroflexus L.) and velvetleaf (Abutilon theophrasti Medik.) were planted into a sandy loam soil and treated preemergence with a directed soil spray using test chemicals formulated in a non-phytotoxic solvent mixture which included a surfactant. At the same time plants selected from these species were also treated postemergence by spraying to runoff with test chemicals formulated.
(§4) Plants ranged in height from 2 to 10 cm and were in the one- to two-leaf stage for the postemergence treatment. Treated plants and untreated controls were maintained in a greenhouse for approximately ten days, after which time all treated plants were compared to untreated controls and visually evaluated for injury. Plant response ratings, summarized in Table A, are based on a 0 to 100 scale where 0 is no effect and 100 is complete control. A dash (-) response means no test results.

large crabgrass [9] = assay: Test A pre-/postemergence herbicide test; type: in vivo, Digitaria sanguinalis
Text: as §3, §4

giant foxtail [10] = assay: Test A pre-/postemergence herbicide test; type: in vivo, Setaria faberi
Text: as §3, §4

morningglory [11] = assay: Test A pre-/postemergence herbicide test; type: in vivo, Ipomoea spp.
Text: as §3, §4

redroot pigweed = assay: Test A pre-/postemergence herbicide test; type: in vivo, Amaranthus retroflexus
Text: as §3, §4

velvetleaf [12] = assay: Test A pre-/postemergence herbicide test; type: in vivo, Abutilon theophrasti
Text: as §3, §4

[13] = Postemergence, 500 g ai/ha, scale 0 (no effect) to 100 (complete control)
[14] = postemergence, 125 g ai/ha, scale 0 to 100
[15] = Postemergence, 500 g ai/ha, 0 to 100 scale, 0 no effect, 100 complete control
[16] = Postemergence, 2000 g ai/ha, 0 to 100 scale, 0 no effect, 100 complete control
[17] = Preemergence, 500 g ai/ha, visual rating, 0 to 100 scale (0 no effect, 100 complete control)
[18] = Preemergence, 2000 g ai/ha, visual rating, 0 to 100 scale (0 no effect, 100 complete control)
[19] = Preemergence, 2000 g ai/ha, 0 to 100 scale, 0 no effect, 100 complete control
[20] = Postemergence, 125 g ai/ha, 0 to 100 scale, 0 no effect, 100 complete control
[21] = preemergence, 125 g ai/ha, visual injury, 0 to 100 scale (0 no effect, 100 complete control)
[22] = preemergence, 500 g ai/ha, visual injury, 0 to 100 scale (0 no effect, 100 complete control)

SMILES: Cc1nn(C(C)(C)C)nc1C(=O)Nc1cccc(C(=O)N(C)C)n1 [Compound 436]
- Barnyardgrass plant response rating (barnyardgrass [1]; 125 g ai/ha): 0
- Barnyardgrass plant response rating (barnyardgrass [1]; 500 g ai/ha): 0
- Surinam Grass plant response rating (Surinam grass; [13]): 0
- Surinam Grass plant response rating (Surinam grass; [14]): 0
- Cocklebur plant response rating (cocklebur; [13]): 10
- Cocklebur plant response rating (cocklebur; [14]): 0
- Corn plant response rating (corn; [13]): 10
- Corn plant response rating (corn; [14]): 0
- Crabgrass, Large plant response rating (large crabgrass [2]; [13]): 0
- Crabgrass, Large plant response rating (large crabgrass [2]; [14]): 0
- Foxtail, Giant plant response rating (giant foxtail [3]; [13]): 0
- Foxtail, Giant plant response rating (giant foxtail [3]; [14]): 0
- Lambsquarters plant response rating (lambsquarters; [13]): 0
- Lambsquarters plant response rating (lambsquarters; [14]): 0
- Morningglory plant response rating (morningglory [4]; [13]): 0
- Morningglory plant response rating (morningglory [4]; [14]): 0
- Pigweed plant response rating (pigweed; [13]): 10
- Pigweed plant response rating (pigweed; [14]): 0
- Velvetleaf plant response rating (velvetleaf [5]; [13]): 30
- Velvetleaf plant response rating (velvetleaf [5]; [14]): 0
- Blackgrass plant response rating (blackgrass; [13]): 0
- Blackgrass plant response rating (blackgrass; [14]): 0
- Wheat plant response rating (wheat; 500 g ai/ha, scale 0 to 100, 0 no effect, 100 complete control, preemergence): 20
- Wheat plant response rating (wheat; [13]): 20
- Wheat plant response rating (wheat; [14]): 10
- Oat, Wild plant response rating (wild oat; [13]): 30
- Oat, Wild plant response rating (wild oat; [14]): 10
- Rice plant response rating (rice): 0
- Sedge, Umbrella plant response rating [6]: 0
- Ducksalad plant response rating (ducksalad): 0
- Barnyardgrass plant response rating (barnyardgrass [7]): 0

SMILES: CC(=NO)c1cccc(NC(=O)c2cc(C(F)(F)F)nn2C)c1 [Compound 103]
- Barnyardgrass plant response rating (barnyardgrass [8]; [15]): 45
- Plant response rating, Barnyardgrass (barnyardgrass [8]; [16]): 75
- Barnyardgrass plant response rating (barnyardgrass [8]; [17]): 55
- Barnyardgrass plant response rating (barnyardgrass [8]; [18]): 85
- Crabgrass, Large plant response rating (large crabgrass [9]; [15]): 15
- Plant response rating, Crabgrass, Large (large crabgrass [9]; [16]): 30
- Crabgrass, Large plant response rating (large crabgrass [9]; [17]): 35
- Crabgrass, Large plant response rating (large crabgrass [9]; [18]): 55
- Foxtail, Giant plant response rating (giant foxtail [10]; [15]): 10
- Plant response rating, Foxtail, Giant (giant foxtail [10]; [16]): 30
- Foxtail, Giant plant response rating (giant foxtail [10]; [17]): 0
- Foxtail, Giant plant response rating (giant foxtail [10]; [18]): 15
- Morningglory plant response rating (morningglory [11]; [15]): 25
- Plant response rating, Morningglory (morningglory [11]; [16]): 35
- Morningglory plant response rating (morningglory [11]; [17]): 0
- Morningglory plant response rating (morningglory [11]; [18]): 10
- Pigweed plant response rating (redroot pigweed; [15]): 85
- Plant response rating, Pigweed (redroot pigweed; [16]): 100
- Pigweed plant response rating (redroot pigweed; [17]): 80
- Pigweed plant response rating (redroot pigweed; [18]): 95
- Velvetleaf plant response rating (velvetleaf [12]; [15]): 10
- Plant response rating, Velvetleaf (velvetleaf [12]; [16]): 45
- Velvetleaf plant response rating (velvetleaf [12]; [17]): 20
- Velvetleaf plant response rating (velvetleaf [12]; [18]): 20

SMILES: Cn1nc(C(C)(C)C)cc1C(=O)Nc1cccc2c1CNC2=O [Compound 53]
- Plant response rating, Barnyardgrass (barnyardgrass [8]; [15]): 0
- Plant response rating, Barnyardgrass (barnyardgrass [8]; [16]): 0
- Barnyardgrass plant response rating (barnyardgrass [8]; [17]): 0
- Barnyardgrass plant response rating (barnyardgrass [8]; [19]): 10
- Plant response rating, Crabgrass, Large (large crabgrass [9]; [15]): 5
- Plant response rating, Crabgrass, Large (large crabgrass [9]; [16]): 0
- Crabgrass, Large plant response rating (large crabgrass [9]; [17]): 0
- Crabgrass, Large plant response rating (large crabgrass [9]; [19]): 40
- Plant response rating, Foxtail, Giant (giant foxtail [10]; [15]): 0
- Plant response rating, Foxtail, Giant (giant foxtail [10]; [16]): 0
- Foxtail, Giant plant response rating (giant foxtail [10]; [17]): 0
- Foxtail, Giant plant response rating (giant foxtail [10]; [19]): 0
- Plant response rating, Morningglory (morningglory [11]; [15]): 0
- Plant response rating, Morningglory (morningglory [11]; [16]): 0
- Morningglory plant response rating (morningglory [11]; [17]): 0
- Morningglory plant response rating (morningglory [11]; [19]): 0
- Plant response rating, Pigweed (redroot pigweed; [15]): 0
- Plant response rating, Pigweed (redroot pigweed; [16]): 0
- Pigweed plant response rating (redroot pigweed; [17]): 30
- Pigweed plant response rating (redroot pigweed; [19]): 40
- Plant response rating, Velvetleaf (velvetleaf [12]; [16]): 0
- Velvetleaf plant response rating (velvetleaf [12]; [17]): 0
- Velvetleaf plant response rating (velvetleaf [12]; [19]): 0

SMILES: CCNC(=O)c1ccc(F)c(NC(=O)c2nc(C(C)(C)C)nn2CC)c1 [Compound 447]
- Barnyardgrass plant response rating (barnyardgrass [8]; [20]): 25
- Barnyardgrass plant response rating (barnyardgrass [8]; [15]): 70
- Barnyardgrass plant response rating (barnyardgrass [8]; [21]): 20
- Barnyardgrass plant response rating (barnyardgrass [8]; [22]): 60
- Crabgrass, Large plant response rating (large crabgrass [9]; [20]): 10
- Crabgrass, Large plant response rating (large crabgrass [9]; [15]): 25
- Crabgrass, Large plant response rating (large crabgrass [9]; [21]): 0
- Crabgrass, Large plant response rating (large crabgrass [9]; [22]): 35
- Foxtail, Giant plant response rating (giant foxtail [10]; [20]): 10
- Foxtail, Giant plant response rating (giant foxtail [10]; [15]): 40
- Foxtail, Giant plant response rating (giant foxtail [10]; [21]): 10
- Foxtail, Giant plant response rating (giant foxtail [10]; [22]): 45
- Morningglory plant response rating (morningglory [11]; [20]): 5
- Morningglory plant response rating (morningglory [11]; [15]): 10
- Morningglory plant response rating (morningglory [11]; [21]): 0
- Morningglory plant response rating (morningglory [11]; [22]): 0
- Pigweed plant response rating (redroot pigweed; [20]): 40
- Pigweed plant response rating (redroot pigweed; [15]): 50
- Pigweed plant response rating (redroot pigweed; [21]): 10
- Pigweed plant response rating (redroot pigweed; [22]): 50
- Velvetleaf plant response rating (velvetleaf [12]; [20]): 10
- Velvetleaf plant response rating (velvetleaf [12]; [15]): 30
- Velvetleaf plant response rating (velvetleaf [12]; [21]): 0
- Velvetleaf plant response rating (velvetleaf [12]; [22]): 0
